Measured values reported in ChEMBL document CHEMBL1201862, “PubChem BioAssay data set” (2004).
The source made the active and inactive calls.

Columns and labels:
[1] = target: ATP-dependent molecular chaperone HSP82 (Candida albicans (strain WO-1) (Yeast), UniProt C4YTQ8); assay: steroid-induced GRE reporter decrease in yeast – S. cerevisiae, luminescence, Hsp90 inhibitor project, dose response (AID 2400); type: functional, cell-based;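 note: beta-galactosidase luminescence from glucocorticoid response element reporter as proxy for Hsp90 function; inhibitor potency where signal loss means Hsp90 inhibition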
ATP-dependent molecular chaperone HSP82, sequence (C4YTQ8 whole entry): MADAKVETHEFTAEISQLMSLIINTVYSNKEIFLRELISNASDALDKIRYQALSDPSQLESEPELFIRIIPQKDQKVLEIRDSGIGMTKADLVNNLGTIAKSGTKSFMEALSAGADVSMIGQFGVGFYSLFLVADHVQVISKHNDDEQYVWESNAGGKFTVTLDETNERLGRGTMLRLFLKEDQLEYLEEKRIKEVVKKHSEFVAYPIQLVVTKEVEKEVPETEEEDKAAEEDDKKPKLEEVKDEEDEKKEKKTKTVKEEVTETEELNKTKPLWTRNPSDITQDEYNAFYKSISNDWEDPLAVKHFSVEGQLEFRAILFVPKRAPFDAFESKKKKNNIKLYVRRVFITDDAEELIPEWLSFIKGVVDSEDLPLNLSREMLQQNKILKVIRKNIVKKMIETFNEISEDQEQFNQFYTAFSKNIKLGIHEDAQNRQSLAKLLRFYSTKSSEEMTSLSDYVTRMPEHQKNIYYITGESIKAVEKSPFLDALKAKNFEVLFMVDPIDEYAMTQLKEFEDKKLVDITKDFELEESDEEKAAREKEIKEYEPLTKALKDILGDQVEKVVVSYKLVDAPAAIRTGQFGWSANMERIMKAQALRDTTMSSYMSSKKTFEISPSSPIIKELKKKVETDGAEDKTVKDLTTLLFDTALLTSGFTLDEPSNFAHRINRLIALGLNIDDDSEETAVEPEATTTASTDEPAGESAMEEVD

[2] = target: Serine/threonine-protein phosphatase (Candida dubliniensis (strain CD36 / CBS 7987 / NCPF 3949 / NRRLY-17841) (Yeast), UniProt B9W6M3); assay: blockers of CaCl2-induced CDRE-lacZ signaling – S. cerevisiae, luminescence, secondary, dose response (AID 2388); type: functional, cell-based;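 note: yeast reporter cells carrying a calcineurin-responsive lacZ construct stimulated with calcium chloride; luminescent beta-galactosidase reporter signal in whole cells rather than isolated phosphatase activity; potency for inhibition where a drop in reporter signal means calcineurin blockade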
Serine/threonine-protein phosphatase, sequence (B9W6M3 whole entry): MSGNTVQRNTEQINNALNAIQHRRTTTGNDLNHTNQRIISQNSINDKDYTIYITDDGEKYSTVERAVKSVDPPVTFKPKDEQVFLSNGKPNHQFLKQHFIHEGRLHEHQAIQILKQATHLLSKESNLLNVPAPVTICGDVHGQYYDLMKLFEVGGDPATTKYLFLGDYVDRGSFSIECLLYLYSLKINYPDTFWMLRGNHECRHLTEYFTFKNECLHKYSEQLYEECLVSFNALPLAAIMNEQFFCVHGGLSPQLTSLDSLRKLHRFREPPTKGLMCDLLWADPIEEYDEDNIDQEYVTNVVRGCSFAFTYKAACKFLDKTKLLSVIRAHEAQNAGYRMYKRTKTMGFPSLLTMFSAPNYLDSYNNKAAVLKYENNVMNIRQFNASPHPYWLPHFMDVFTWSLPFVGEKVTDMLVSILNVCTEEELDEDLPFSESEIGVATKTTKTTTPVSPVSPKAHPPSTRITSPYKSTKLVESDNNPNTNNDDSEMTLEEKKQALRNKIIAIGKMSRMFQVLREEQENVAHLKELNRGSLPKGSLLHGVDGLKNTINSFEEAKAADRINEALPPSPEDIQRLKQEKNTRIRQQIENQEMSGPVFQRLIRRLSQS

[3] = NIH-3T3 fibroblast cytotoxicity, dose response, cytotoxicity control, cell-based, fluorescence, Alamar Blue, secondary assay (AID 2327); type: functional;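 note: NIH-3T3 mouse fibroblasts cultured with fluconazole at 8 µg/mL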
Mucolipin-3 = target: T1, Mucolipin-3 (Homo sapiens, UniProt Q8TDD5); assay: Dose response cell-based high-throughput screening assay for agonists of the transient receptor potential channel ML3 (TRPML3). [Related pubchem assays: 1526, 1424, 1448 ]; type: functional
T1 sequence (Q8TDD5 whole entry): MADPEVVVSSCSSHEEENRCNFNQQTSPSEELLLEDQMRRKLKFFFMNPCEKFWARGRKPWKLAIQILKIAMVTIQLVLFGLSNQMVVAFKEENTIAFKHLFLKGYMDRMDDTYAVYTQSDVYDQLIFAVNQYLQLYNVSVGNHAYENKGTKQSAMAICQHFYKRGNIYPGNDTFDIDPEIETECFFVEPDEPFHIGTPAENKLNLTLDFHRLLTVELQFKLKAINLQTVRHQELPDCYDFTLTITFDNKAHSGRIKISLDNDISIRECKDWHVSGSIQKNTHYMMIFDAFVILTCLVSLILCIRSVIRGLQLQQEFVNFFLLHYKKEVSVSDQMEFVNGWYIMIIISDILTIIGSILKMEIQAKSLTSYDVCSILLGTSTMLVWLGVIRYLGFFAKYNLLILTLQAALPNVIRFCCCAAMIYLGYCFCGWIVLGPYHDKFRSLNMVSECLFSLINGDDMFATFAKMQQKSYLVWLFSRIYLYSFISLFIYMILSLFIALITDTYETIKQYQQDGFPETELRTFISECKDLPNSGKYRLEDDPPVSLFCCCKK

Ion channel NompC = Ion channel NompC (Danio rerio, UniProt Q7T1G6); assay: Fluorescence counterscreen assay for TRPML3 agonists: dose response cell-based high-throughput screening assay to identify agonists of the transient receptor potential channel N1 (TRPN1). [Related pubchem assays: 1526, 1424, 1448 ]; type: functional
Ion channel NompC, sequence (Q7T1G6 whole entry): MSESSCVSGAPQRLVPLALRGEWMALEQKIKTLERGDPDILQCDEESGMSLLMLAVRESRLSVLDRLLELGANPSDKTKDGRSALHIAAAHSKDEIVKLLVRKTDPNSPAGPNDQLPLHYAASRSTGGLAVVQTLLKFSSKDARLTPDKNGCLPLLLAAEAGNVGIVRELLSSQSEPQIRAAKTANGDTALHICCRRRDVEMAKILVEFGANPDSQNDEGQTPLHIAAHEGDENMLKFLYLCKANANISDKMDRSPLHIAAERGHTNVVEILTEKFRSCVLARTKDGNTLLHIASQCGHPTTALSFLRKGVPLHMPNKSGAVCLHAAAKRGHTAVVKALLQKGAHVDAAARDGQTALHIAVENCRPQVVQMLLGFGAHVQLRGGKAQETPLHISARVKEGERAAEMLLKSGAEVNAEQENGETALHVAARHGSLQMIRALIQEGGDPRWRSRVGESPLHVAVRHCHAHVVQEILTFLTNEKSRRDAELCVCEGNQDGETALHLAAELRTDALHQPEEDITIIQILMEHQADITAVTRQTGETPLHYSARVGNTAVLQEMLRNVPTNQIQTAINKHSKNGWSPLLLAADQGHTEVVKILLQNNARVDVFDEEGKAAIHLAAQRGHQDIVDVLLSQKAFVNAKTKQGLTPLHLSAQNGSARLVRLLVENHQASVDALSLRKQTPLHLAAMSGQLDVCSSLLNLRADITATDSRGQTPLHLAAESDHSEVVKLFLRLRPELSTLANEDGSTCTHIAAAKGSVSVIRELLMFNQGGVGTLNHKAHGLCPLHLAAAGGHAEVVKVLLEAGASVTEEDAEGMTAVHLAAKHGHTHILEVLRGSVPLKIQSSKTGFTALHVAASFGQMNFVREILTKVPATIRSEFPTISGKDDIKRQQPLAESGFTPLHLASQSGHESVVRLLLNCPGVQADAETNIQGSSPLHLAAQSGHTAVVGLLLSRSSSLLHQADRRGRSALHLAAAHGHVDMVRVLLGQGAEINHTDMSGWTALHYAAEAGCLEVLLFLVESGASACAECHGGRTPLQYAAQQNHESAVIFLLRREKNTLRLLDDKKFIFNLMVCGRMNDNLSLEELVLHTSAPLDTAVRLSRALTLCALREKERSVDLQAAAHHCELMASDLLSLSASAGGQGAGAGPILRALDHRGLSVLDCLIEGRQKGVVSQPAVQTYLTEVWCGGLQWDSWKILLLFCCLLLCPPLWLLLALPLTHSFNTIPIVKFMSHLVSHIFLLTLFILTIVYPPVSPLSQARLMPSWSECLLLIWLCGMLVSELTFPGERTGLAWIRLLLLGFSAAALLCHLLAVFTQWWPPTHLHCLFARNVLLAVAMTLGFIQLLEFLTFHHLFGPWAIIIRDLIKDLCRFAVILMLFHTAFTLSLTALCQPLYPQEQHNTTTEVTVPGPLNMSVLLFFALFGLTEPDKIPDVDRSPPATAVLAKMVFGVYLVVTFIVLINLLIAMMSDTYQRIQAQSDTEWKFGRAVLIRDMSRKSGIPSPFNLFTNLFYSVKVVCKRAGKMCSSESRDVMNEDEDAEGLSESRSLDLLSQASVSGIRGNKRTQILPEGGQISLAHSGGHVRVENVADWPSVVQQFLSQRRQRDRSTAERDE

[4] = fluconazole-exposed Candida albicans growth modulators – fluorescence, retest, confirmation (AID 2467); type: functional, cell-based
Escherichia coli [5] = assay: microbe, parasite or virus in culture
Escherichia coli [6] = assay: microbe, parasite or virus in culture; remark: listed apart in the source
[7] = alpha-synuclein stem-loop luciferase translation blockers – H4 neuroglioma cells, luminescence, confirmation (AID 1988); type: functional, cell-based
BJ = assay: growth inhibition of engineered Ras-driven BJ cells – cell-based, alamar blue fluorescence, cherrypicked samples, dose response (AID 2631); type: functional; conditions: Homo sapiens;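 note: confirmatory dose-response assay in RAS-dependent BJ fibroblasts engineered with TERT, LT and ST, with cytotoxicity read by fluorescence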
[8] = luciferase reporter signal suppression in cells – H4 neuroglioma cells, luminescence, dose response (AID 1990); type: functional, cell-based
[9] = Luminescence Cell-Based Dose Response HTS to Identify Inhibitors of 5'UTR Stem-Loop Driven Prion Protein mRNA Translation in H4 Neuroglioblastoma Cells. [Related pubchem assays: 1827 (Project Summary), 1813 (Primary HTS)]; type: functional
[10] = target: Beta-2 adrenergic receptor (Homo sapiens, UniProt P07550); assay: ADRB2 activation measured by internalization – cell-based, FAP fluorogen, flow cytometry, cherry pick 1, dose response (AID 588763); type: functional
Beta-2 adrenergic receptor, sequence (P07550 whole entry): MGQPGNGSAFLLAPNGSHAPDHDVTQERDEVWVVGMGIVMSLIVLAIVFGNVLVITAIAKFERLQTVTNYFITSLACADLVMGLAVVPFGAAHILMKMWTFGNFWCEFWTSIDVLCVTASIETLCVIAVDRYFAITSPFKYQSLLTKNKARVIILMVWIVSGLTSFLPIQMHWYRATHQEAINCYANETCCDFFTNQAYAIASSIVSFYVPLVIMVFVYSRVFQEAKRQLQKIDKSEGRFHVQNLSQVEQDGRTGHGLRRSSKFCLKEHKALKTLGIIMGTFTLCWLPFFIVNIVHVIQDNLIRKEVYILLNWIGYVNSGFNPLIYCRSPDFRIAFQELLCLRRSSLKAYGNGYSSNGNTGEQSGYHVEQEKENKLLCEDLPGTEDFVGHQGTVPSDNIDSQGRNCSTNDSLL

[11] = NIH3T3 cell viability loss – ATP luminescence, mouse fibroblasts, counter-screen, dose response (AID 2010); type: functional, cell-based;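 note: cells exposed to compound for about 90 hours before reading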
[12] = Trypanosoma cruzi growth suppression in host cells – NIH3T3 host cells, beta-gal luminescence, confirmation (AID 2044); type: functional, cell-based;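 note: intracellular parasites grown in NIH/3T3 mouse fibroblasts as host cells; luminescent beta-galactosidase reporter signal from transgenic T. cruzi replicating inside host cells; inhibitors lower the luminescence signal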
[13] = target: T2, Short transient receptor potential channel 4 (Mus musculus, UniProt Q9QUQ5); assay: calcium entry via TRPC4 opening agents – cell-based, HEK293 TRPC4/mu-opioid, Fluo-4 calcium, dose response (AID 434937); type: functional
T2 sequence (Q9QUQ5 whole entry): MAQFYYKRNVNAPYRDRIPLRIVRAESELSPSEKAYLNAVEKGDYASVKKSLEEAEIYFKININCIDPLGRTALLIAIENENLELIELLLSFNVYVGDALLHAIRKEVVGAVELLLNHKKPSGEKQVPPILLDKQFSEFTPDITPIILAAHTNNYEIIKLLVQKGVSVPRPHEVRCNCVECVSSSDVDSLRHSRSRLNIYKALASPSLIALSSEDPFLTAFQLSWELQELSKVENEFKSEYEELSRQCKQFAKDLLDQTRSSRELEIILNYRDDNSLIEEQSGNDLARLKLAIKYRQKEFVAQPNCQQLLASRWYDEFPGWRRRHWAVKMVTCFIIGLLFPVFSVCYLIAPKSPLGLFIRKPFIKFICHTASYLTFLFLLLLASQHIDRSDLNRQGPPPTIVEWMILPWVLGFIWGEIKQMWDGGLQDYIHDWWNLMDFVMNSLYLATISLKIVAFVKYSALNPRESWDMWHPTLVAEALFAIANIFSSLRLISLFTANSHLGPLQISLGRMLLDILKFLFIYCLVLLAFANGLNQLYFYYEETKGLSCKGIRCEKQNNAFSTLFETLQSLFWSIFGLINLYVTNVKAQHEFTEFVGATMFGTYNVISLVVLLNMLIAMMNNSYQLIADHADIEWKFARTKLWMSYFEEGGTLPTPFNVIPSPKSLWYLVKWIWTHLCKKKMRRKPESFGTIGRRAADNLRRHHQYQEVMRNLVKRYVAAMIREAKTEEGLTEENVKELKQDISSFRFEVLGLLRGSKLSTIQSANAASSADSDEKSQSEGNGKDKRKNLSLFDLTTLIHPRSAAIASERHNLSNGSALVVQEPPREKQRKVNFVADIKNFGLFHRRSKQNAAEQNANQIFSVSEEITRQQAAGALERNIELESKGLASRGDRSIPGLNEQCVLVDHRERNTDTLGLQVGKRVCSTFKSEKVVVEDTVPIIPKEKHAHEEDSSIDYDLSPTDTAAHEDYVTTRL

[14] = target: 5-hydroxytryptamine receptor 5A (Homo sapiens, UniProt P47898); assay: Counterscreen for agonists of OPRM1-OPRD1 heterodimerization: luminescence-based cell-based high throughput dose response assay to identify agonists of 5-hydroxytryptamine (serotonin) 5A receptor (HTR5A). [Related pubchem assays (depositor defined):AID504326, AID504355, AID504692, AID504904, AID504905]; type: functional
[15] = target: Delta-type opioid receptor (Homo sapiens, UniProt P41143); assay: Counterscreen for agonists of heterodimerization of the mu 1 (OPRM1) and delta 1 (OPRD1) opioid receptors: Luminescence-based cell-based high throughput dose response assay to identify agonists of OPRD1 homodimerization. [Related pubchem assays (depositor defined):AID504326, AID504355, AID504692, AID504904, AID504905]; type: functional
Mu-type opioid receptor = Mu-type opioid receptor (Homo sapiens, UniProt P35372); assay: Counterscreen for agonists of heterodimerization of the mu 1 (OPRM1) and delta 1 (OPRD1) opioid receptors: Luminescence-based cell-based high throughput dose response assay to identify agonists of OPRM1 homodimerization.; type: functional;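 note: U2OS cells expressing OPRM1 and beta-arrestin as split beta-galactosidase partners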
Mu-type opioid receptor, sequence (P35372 whole entry): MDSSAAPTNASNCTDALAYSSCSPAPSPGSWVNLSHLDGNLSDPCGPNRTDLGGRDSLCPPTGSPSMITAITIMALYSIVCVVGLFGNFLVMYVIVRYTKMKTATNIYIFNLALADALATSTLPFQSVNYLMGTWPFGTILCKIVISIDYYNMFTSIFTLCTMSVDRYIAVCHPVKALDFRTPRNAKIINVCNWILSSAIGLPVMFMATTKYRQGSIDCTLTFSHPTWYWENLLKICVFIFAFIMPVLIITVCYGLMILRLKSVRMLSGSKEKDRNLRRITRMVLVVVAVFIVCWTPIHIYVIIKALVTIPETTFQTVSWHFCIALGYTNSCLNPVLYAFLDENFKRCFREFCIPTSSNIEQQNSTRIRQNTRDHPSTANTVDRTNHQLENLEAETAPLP

HEK293 = assay: cells; type: functional, cell-based; conditions: Homo sapiens
[16] = target: T3, Nuclear receptor subfamily 0 group B member 1 (Homo sapiens, UniProt P51843); assay: Luminescence-based cell-based high throughput dose response assay for inhibitors of the orphan nuclear receptor subfamily 0, group B, member 1 (DAX1; NR0B1). [Related pubchem assays (depositor defined):AID504766, AID504790]; type: functional
T3 sequence (P51843 whole entry): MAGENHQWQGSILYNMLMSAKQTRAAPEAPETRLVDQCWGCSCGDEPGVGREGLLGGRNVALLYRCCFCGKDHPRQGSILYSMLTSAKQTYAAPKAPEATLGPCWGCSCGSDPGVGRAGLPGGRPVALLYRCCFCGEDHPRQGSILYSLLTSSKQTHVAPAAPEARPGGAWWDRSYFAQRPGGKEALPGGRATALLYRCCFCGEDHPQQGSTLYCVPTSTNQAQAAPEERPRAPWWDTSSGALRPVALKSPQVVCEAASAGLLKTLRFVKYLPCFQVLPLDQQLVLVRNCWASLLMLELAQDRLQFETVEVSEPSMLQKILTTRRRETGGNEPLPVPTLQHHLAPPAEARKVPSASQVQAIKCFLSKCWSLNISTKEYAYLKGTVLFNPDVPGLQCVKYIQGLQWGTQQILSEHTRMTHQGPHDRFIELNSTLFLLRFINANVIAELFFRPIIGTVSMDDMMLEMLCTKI

CAAX prenyl protease 2 [17] = target: CAAX prenyl protease 2 (Homo sapiens, UniProt Q9Y256); assay: inhibition of Ras-converting CAAX protease Rce1 – biochemical, yeast membranes, quenched-peptide fluorescence, cherry-pick, dose response (AID 588849)
CAAX prenyl protease 2 (Homo sapiens, UniProt Q9Y256), sequence (Q9Y256 whole entry): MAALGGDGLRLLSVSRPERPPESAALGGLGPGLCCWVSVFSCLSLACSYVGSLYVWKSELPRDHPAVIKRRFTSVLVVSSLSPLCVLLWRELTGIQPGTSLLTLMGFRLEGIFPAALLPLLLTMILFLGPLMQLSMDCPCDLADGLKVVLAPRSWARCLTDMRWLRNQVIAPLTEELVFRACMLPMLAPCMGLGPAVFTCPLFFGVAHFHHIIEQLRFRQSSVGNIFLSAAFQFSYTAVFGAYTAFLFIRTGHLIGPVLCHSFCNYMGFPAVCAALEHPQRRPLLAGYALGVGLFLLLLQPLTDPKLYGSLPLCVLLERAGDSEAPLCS

[18] = target: FAD-linked sulfhydryl oxidase ALR (Homo sapiens, UniProt P55789); assay: ALR-catalysed DTT oxidation blockers – biochemical, H2O2 detection, luminescence, cherry-pick, dose response (AID 493248)
FAD-linked sulfhydryl oxidase ALR, sequence (P55789 whole entry): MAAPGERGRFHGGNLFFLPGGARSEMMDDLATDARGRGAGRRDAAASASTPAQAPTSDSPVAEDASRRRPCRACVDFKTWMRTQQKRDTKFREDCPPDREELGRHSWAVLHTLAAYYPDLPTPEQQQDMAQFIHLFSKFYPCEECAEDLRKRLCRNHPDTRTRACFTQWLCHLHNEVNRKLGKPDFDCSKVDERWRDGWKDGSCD

CAAX prenyl protease 1 = CAAX prenyl protease 1 (Saccharomyces cerevisiae S288c, UniProt P47154); assay: yeast CAAX protease Ste24 inhibition – biochemical, S. cerevisiae, plate reader, cherry-pick, dose response (AID 488815)
CAAX prenyl protease 1, sequence (P47154 whole entry): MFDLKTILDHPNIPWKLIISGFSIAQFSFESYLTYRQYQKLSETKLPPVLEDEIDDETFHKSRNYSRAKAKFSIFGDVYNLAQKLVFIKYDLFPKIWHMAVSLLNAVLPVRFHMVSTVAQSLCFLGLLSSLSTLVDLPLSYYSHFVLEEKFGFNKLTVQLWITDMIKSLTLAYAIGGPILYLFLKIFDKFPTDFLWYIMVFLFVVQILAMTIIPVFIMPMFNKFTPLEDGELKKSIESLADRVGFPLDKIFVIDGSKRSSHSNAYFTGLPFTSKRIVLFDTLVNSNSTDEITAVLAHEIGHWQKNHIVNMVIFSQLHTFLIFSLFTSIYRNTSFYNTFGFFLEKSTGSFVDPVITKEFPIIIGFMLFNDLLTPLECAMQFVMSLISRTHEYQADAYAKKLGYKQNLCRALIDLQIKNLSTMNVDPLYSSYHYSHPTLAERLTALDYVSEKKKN

CAAX prenyl protease 2 [19] = target: T4, CAAX prenyl protease 2 (Saccharomyces cerevisiae S288c, UniProt Q03530); type: biochemical
T4 sequence (Q03530 whole entry): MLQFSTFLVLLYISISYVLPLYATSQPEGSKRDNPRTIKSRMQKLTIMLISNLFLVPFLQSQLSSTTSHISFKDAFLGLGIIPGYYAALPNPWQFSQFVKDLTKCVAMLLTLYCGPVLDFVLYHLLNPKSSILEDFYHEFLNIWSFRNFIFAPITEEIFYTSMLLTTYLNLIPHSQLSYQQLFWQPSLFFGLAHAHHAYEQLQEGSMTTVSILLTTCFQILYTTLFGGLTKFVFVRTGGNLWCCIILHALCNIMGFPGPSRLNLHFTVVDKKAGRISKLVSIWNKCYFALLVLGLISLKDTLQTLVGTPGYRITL

For `Cc1ccc(S(=O)(=O)N(C)c2ccc(OCC(=O)Nc3nnc(C4CC4)s3)cc2)cc1`, the EC50 [1] was > 150 µM (inactive), the EC50 [2] was > 180 µM (inactive) and the EC50 [3] was > 150 µM (inactive). The EC50 (Mucolipin-3) was 4.38 µM (active), the EC50 (Ion channel NompC) was > 29.9 µM (not active) and the EC50 [4] was 3.05 µM (active).

In the case of `Cc1nc(NS(=O)(=O)c2ccccc2)sc1NC(=O)Nc1ccc(Cl)cc1`, the AC50 (Escherichia coli [5]) is reported as > 380 µM (inactive) and the AC50 (Escherichia coli [6]) is reported as 27 µM (active).

With `COc1cccc(Cn2c(-c3nonc3N)nc3ccccc32)c1` the EC50 [7] was 2.69 µM (active), the EC50 (BJ) was 0.455 µM (active) and the EC50 [8] was 9.54 µM (active). The EC50 [9] was 24.7 µM (active).

With `NC(=O)CC(NC(=O)c1ccccc1)c1ccc(NCCCN2CCCC2=O)c([N+](=O)[O-])c1` (centres undefined) the EC50 [10] was 1.4 µM (active).

With `Cc1cc(Cl)c2oc(C(=O)N3CCN(c4ccncc4)CC3)c(C)c2c1` the EC50 [11] was 7.17 µM (active), the EC50 [10] was 86.2 µM (inactive) and the EC50 [12] was 1.28 µM (active).

In the case of `COCC1CCN(Cc2cn(-c3ccccc3F)nc2-c2cc(C)sc2C)CC1`, the EC50 [13] is reported as 1.88 µM (active), the EC50 [14] is reported as > 92.5 µM (inactive) and the EC50 [15] is reported as > 92.5 µM (inactive). The EC50 (Mu-type opioid receptor) was > 92.5 µM (inactive).

In the case of `Clc1ccccc1Nc1nc(-c2cccnc2)cs1`, the IC50 (HEK293) is reported as > 67.5 µM (inactive) and the IC50 [16] is reported as > 67.5 µM (inactive).

In the case of `COc1cc(C(=O)NC2CCN(C)CC2)ccc1Nc1ncc2c(n1)N(Cc1ccccc1)CCC(=O)N2C`, the IC50 (HEK293) is reported as > 67.5 µM (inactive) and the IC50 [16] is reported as > 67.5 µM (inactive).

For `O=C1CN2C(=Nc3ccc(Br)cc3C2c2ccccc2)CCN1` (centres undefined), the AC50 (Escherichia coli [5]) was 81.5 µM (active).

With `COc1ccc(/C=N/NC(=O)c2[nH]c3ccc(C)cc3c2-c2ccccc2)c(C(=O)O)c1OC` the AC50 (CAAX prenyl protease 2 [17]) was 3.14 µM (active), the AC50 [18] was 3.71 µM (active) and the AC50 (CAAX prenyl protease 1) was 1.76 µM (active). For the same compound, the AC50 (CAAX prenyl protease 2 [19]) was 5.21 µM (active).
